From PMC8122972, “Methoxy-Substituted Tyramine Derivatives Synthesis, Computational Studies and Tyrosinase Inhibitory Kinetics” (Molecules, 2021)
Values joined by “and” are separate entries in the source; they are usually repeats but may differ in a detail not shown here. Identical values can stand only once. “Also recorded” adds a separate entry of the source. Like-named read-outs stand apart in the source and are kept apart here. Each block holds one compound with its values, some of them ahead of it.

Experiments:
mushroom tyrosinase [1] = target: T1, mushroom tyrosinase (Agaricus bisporus, UniProt C7FF04); experiment: In vitro mushroom tyrosinase inhibition assay (L-DOPA, dopachrome at 475 nm); format: biochemical
T1 construct: purchased Sigma Aldrich (St. Louis, MO, USA)
Target sequence in this assay (C7FF04 1-392 limits assumed): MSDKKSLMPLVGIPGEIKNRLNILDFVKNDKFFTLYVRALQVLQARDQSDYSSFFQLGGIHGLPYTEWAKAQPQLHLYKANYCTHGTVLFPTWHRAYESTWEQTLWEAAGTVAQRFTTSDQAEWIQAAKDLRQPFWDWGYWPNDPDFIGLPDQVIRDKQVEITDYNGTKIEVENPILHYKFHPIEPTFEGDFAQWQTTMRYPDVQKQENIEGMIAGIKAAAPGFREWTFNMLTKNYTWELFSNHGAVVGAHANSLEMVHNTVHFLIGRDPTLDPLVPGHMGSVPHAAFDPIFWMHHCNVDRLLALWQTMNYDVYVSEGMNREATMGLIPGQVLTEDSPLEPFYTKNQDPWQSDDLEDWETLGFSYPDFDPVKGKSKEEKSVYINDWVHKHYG
Method: In vitro mushroom tyrosinase (Sigma Aldrich, St. Louis, MO, USA) inhibition assay was performed, following our already reported method [52]. In detail, 140 µL of phosphate buffer (20 mM, pH 6.8), 20 µL of mushroom tyrosinase (30 U/mL) and 20 µL of the inhibitor solution were placed in the wells of a 96-well microplate. After pre-incubation for 10 min at room temperature, 20 µL of L-DOPA (3,4-dihydroxyphenylalanine, Sigma Aldrich, St. Louis, MO, USA) (0.85 mM) was added and the assay plate was further incubated at 25 °C for 20 min. Afterward the absorbance of dopachrome was measured at 475 nm using a microplate reader (OPTIMax, Tunable, Sunnyvale, CA, USA). All of the compounds were dissolved in DMSO and blank tests were performed with solvent DMSO. The IC50 values were reported after subtracting the value of DMSO. […] Each concentration was analyzed in three independent experiments. The IC50 values were determined by the data analysis and graphing software Origin 8.6, 64-bit.
The tyrosinase %age inhibition was determined by using the following formula:Inhibition (%) = [(B − S)/B] × 100(1)
Here, the absorbance of the blank and inhibitor are represented by B and S respectively.

human tyrosinase = target: T2, human tyrosinase (Homo sapiens, UniProt P14679); experiment: Human tyrosinase inhibition assay (enzyme prepared from A375 human melanoma cells); format: biochemical; conditions: L-DOPA, 50 µg/mL (b9)
T2 construct: endogenous in cells; host or cells: A375 human melanoma cells (ATCC), induced with L-tyrosine; sonicated pellet, 10,000 x g supernatant
T2 sequence (P14679 19-529): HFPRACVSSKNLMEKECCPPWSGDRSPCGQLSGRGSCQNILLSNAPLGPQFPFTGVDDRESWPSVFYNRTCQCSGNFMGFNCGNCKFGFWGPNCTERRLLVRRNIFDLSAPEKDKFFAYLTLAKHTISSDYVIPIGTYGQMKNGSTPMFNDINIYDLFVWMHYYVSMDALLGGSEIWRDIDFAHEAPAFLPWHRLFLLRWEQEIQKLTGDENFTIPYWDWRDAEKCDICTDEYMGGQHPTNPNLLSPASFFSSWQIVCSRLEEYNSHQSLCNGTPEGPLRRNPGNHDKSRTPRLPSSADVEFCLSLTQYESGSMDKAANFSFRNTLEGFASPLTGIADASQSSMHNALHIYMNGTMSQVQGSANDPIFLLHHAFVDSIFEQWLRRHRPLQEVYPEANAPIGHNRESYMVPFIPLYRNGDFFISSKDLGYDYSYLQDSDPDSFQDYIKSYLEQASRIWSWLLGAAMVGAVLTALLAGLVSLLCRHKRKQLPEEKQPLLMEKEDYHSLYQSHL
Method: A375 human melanoma cells were obtained from American Type Culture Collection (ATCC; Rockville, MD, USA). A375 cells were grown in Dulbecco’s modified Eagle’s medium (DMEM; Invitrogen, Burlington, ON, Canada) supplemented with L-glutamine, 10% (v/v) fetal bovine serum (FBS; Invitrogen), 50 µg/mL streptomycin (Sigma Aldrich, St. Louis, MO, USA), 50 units/mL penicillin (Sigma Aldrich) and supplemented with 200 µM of L-tyrosine for tyrosinase induction. Cell cultures were incubated at 37 °C, in a humidified atmosphere of 5% CO2. Cells were scraped out from the tissue culture plate with phosphate-buffer saline (PBS) and were homogenized at 4 °C in PBS. The homogenate was centrifuged at 1000× g for 10 min. The precipitate was sonicated in PBS on ice and the mixture was centrifuged at 10,000× g for 30 min. The supernatant containing tyrosinase was used for the measurement of the inhibitory effects.
The assay reaction mixture (200 µL) contained 3.3 mM L-DOPA in 0.33 M phosphate buffer (pH 7.0) and the enzyme in the presence and absence of inhibitors. Fifteen or twenty units of tyrosinase were used to determine the % inhibition. The reaction mixture was incubated at 37 °C for 10 min and the absorbance was recorded at 475 nm using a microplate reader (OPTI Max, Tunable). One unit of the enzyme was defined as the amount of enzyme which increases the absorbance value by 0.001 at 475 per minute under the same conditions as described above.

mushroom tyrosinase [2] = target: T1, mushroom tyrosinase; experiment: Kinetic analysis of the inhibition of mushroom tyrosinase (Lineweaver-Burk plots); format: biochemical; conditions: for Inhibition Type: Lineweaver-Burk plots; for Ki: secondary plot of slope
Method: Among the synthesized Ph derivatives Ph5, Ph6 and Ph9 were selected to determine their inhibition type and inhibition constants on mushroom tyrosinase activity. The potential of these derivatives to inhibit the free enzyme and enzyme–substrate complex was determined in terms of enzyme inhibitor (EI) and enzyme–substrate-inhibitor (ESI) constants respectively. […] Meanwhile, in the case of compound Ph6, the Lineweaver–Burk plot gave a family of straight lines, all of which intersected at the same point on the x-axis Figure 2A. […] It is worth mentioning here that the enzyme inhibitory kinetics were performed with a more efficient natural substrate L-DOPA (L-3,4-dihydroxyphenylalanine). Ph5 is a 3,5-dihydroxyl-substituted benzoic acid derivative and Ph9 is 2,4-dihydroxyl-substituted cinnamic acid derivative whereas, Ph6 is an unsubstituted cinnamic acid analogue.
A series of experiments were performed to calculate the inhibitory kinetics of compounds Ph5, Ph6 and Ph9 by following the already reported method. […] The concentration of substrate L-DOPA was between 0.125 to 2 mM in all kinetic studies. Pre-incubation time and measurement time were the same as discussed in mushroom tyrosinase inhibition assay protocol. Maximal initial velocity was determined from initial linear portion of absorbance up to five minutes after addition of enzyme at a 30 s interval. The inhibition type on the enzyme was determined by Lineweaver–Burk plots of inverse velocities (1/V) versus the inverse of substrate concentration 1/[S] mM^−1.
Target sequence in this assay (C7FF04 1-392): as the sequence (C7FF04 1-392 limits assumed) above

tyrosinase = target: tyrosinase; parameters: method as in PMID 24191339; conditions: cited from earlier work
[3] = substrate L-DOPA, pH 6.8, 25 °C, read-out: Mushroom Tyrosinase IC50 ± SEM
[4] = mushroom tyrosinase, L-DOPA, read-out: Ki (enzyme inhibitor constant)

IC50 (mushroom tyrosinase [1]; [3]): 463 ± 17 nM | inhibition (human tyrosinase): 73 ± 5.35%
Compound: COc1ccc(CCNC(=O)COC(=O)c2ccc(O)cc2)cc1 [Ph2, 2-((4-methoxyphenethyl)amino)-2-oxoethyl 4-hydroxybenzoate]

IC50 (mushroom tyrosinase [1]; [3]): 839 ± 38.1 nM | inhibition (human tyrosinase): 79.7 ± 6.61%
Compound: COc1ccc(CCNC(=O)COC(=O)c2ccc(O)cc2O)cc1 [Ph3, 2-((4-methoxyphenethyl)amino)-2-oxoethyl 2,4-dihydroxybenzoate]

IC50 (mushroom tyrosinase [1]; [3]): 329 ± 21 nM | inhibition (human tyrosinase): 82.2 ± 7.04%
Compound: COc1ccc(CCNC(=O)COC(=O)c2ccc(O)c(O)c2)cc1 [Ph4, 2-((4-methoxyphenethyl)amino)-2-oxoethyl 3,4-dihydroxybenzoate]

IC50 (mushroom tyrosinase [1]; [3]): 104 ± 3.8 nM | inhibition (human tyrosinase): 85.6 ± 6.04% | melting point: 111 to 113 °C
Compound: COc1ccc(CCNC(=O)COC(=O)/C=C/c2ccccc2O)cc1 [Ph7, 2-((4-methoxyphenethyl)amino)-2-oxoethyl (E)-3-(2-hydroxyphenyl)acrylate]

IC50 (mushroom tyrosinase [1]; [3]): 923 ± 53 nM | inhibition (human tyrosinase): 86.3 ± 6.54% | melting point: 119 to 121 °C
Compound: COc1ccc(CCNC(=O)COC(=O)/C=C/c2ccc(O)cc2)cc1 [Ph8, 2-((4-methoxyphenethyl)amino)-2-oxoethyl(E)-3-(4-hydroxyphenyl)acrylate]

IC50 (mushroom tyrosinase [1]; [3]): 452 ± 17.1 nM | inhibition (human tyrosinase): 79.2 ± 5.95%
Compound: COc1ccc(CCNC(=O)COC(=O)/C=C/c2ccc(Cl)cc2)cc1 [Ph10, 2-((4-methoxyphenethyl)amino)-2-oxoethyl (E)-3-(4-chlorophenyl)acrylate]

More lines, now with the values behind:

Compound: COc1ccc(CCNC(=O)COC(=O)c2cccc(O)c2)cc1 [Ph1, 2-((4-methoxyphenethyl)amino)-2-oxoethyl 3-hydroxybenzoate]
IC50 (mushroom tyrosinase [1]; [3]): 4070 ± 154 nM | inhibition (human tyrosinase): 75.6 ± 5.65%

Compound: COc1ccc(CCNC(=O)COC(=O)c2cc(O)cc(O)c2)cc1 [Ph5, 2-((4-methoxyphenethyl)amino)-2-oxoethyl 3,5-dihydroxybenzoate]
IC50 (mushroom tyrosinase [1]; [3]): 231 ± 7.8 nM | inhibition (human tyrosinase): 64.8 ± 3.84% | Vmax (mushroom tyrosinase [2]; inhibitor dose 0.2 µM): 8.266 × 10^−6 ∆A/s | Vmax (mushroom tyrosinase [2]; inhibitor dose 0.4 µM): 5.242 × 10^−6 ∆A/s | Inhibition Type (mushroom tyrosinase [2]; mushroom tyrosinase, L-DOPA): mixed-type inhibition | Ki′ (enzyme substrate inhibitor constant) (mushroom tyrosinase [2]; mushroom tyrosinase, L-DOPA, secondary plot of intercept): 475 nM | Ki (mushroom tyrosinase [2]; [4]): 219 nM

Compound: COc1ccc(CCNC(=O)COC(=O)C=Cc2ccccc2)cc1 [Ph6, 2-((4-methoxyphenethyl)amino)-2-oxoethyl cinnamate]
IC50 (mushroom tyrosinase [1]; Mushroom Tyrosinase IC50 ± SEM, substrate L-DOPA, pH 6.8, 25 °C): 2.04 ± 0.087 nM | IC50 (mushroom tyrosinase [1]; Mushroom tyrosinase IC50, as printed in the abstract): 2.1 nM | Human Tyrosinase (% Inhibition) (human tyrosinase): 92.24 ± 7.985% | inhibition at 50 µg/mL (human tyrosinase): 92.2% | melting point: 103 to 105 °C | Ki (mushroom tyrosinase [2]; Ki (enzyme inhibitor constant), mushroom tyrosinase, L-DOPA): 2.3 nM | Vmax (mushroom tyrosinase [2]; inhibitor dose 0.001 µM): 7.060 × 10^−6 ∆A/s | Vmax (mushroom tyrosinase [2]; inhibitor dose 0.002 µM): 6.929 × 10^−6 ∆A/s | Inhibition Type (mushroom tyrosinase [2]; mushroom tyrosinase, L-DOPA): non-competitive inhibitor; also recorded: non-competitive inhibition

Compound: COc1ccc(CCNC(=O)COC(=O)/C=C/c2ccc(O)cc2O)cc1 [Ph9, 2-((4-methoxyphenethyl)amino)-2-oxoethyl(E)-3-(2,4-dihydroxyphenyl)acrylate]
IC50 (mushroom tyrosinase [1]; read-out: Mushroom tyrosinase IC50): 0.059 nM | IC50 (mushroom tyrosinase [1]; [3]): 0.06 nM and 0.059 nM and 0.0595 nM | Human Tyrosinase (% Inhibition) (human tyrosinase): 94.59 ± 8.071% | inhibition at 50 µg/mL (human tyrosinase): 94.6% | Vmax (mushroom tyrosinase [2]; inhibitor dose 0.00003 µM): 4.666 × 10^−6 ∆A/s | Vmax (mushroom tyrosinase [2]; inhibitor dose 0.00012 µM): 2.666 × 10^−6 ∆A/s | Vmax (mushroom tyrosinase [2]; inhibitor dose 0.00015 µM): 4.285 × 10^−6 ∆A/s | Inhibition Type (mushroom tyrosinase [2]; mushroom tyrosinase, L-DOPA): mixed-type inhibition | Ki (mushroom tyrosinase [2]; [4]): 0.09 nM and 0.093 nM

Compound: O=c1oc2c(O)c(O)cc3c(=O)oc4c(O)c(O)cc1c4c23 [ellagic acid]
Tyrosinase inhibitory activity IC50 (tyrosinase; substrate L-DOPA): 151.1 µg/mL

Compound: O=c1c(O)c(-c2ccc(O)c(O)c2)oc2cc(O)c(O)c(O)c12 [quercetagetin]
Tyrosinase inhibitory activity IC50 (tyrosinase; substrate L-DOPA): 128.41 µg/mL | Tyrosinase inhibitory activity IC50 (tyrosinase; substrate L-tyrosine): 89.31 µg/mL
